Data as given in patent US20140135357A1, “DOSE REGIME FOR CAMPTOTHECIN DERIVATIVES” (Taiwan Liposome Company, Ltd., priority 2012, published 2014).
Like-named read-outs stand apart in the source and are kept apart here.

Key:
[1] = human, in vivo; for time at which peak plasma concentrations (Cmax) were achieved / time of rapid rise of the metabolites in the serum after starting the infusion: iv
Method: (§1) A non-randomized phase I clinical trial was conducted at 4 institutions in the US and Taiwan.
(§2) Patients were included in this trial if they are over the age of 18, with advanced cancer and the ECOG performance status is 0 or 1. […] Patients were excluded from the study if they have previously received more than 3 regimens of chemotherapy, or if they have received chemotherapy or radiotherapy within 4 weeks of the trial recruitment.
(§3) Eligible patients were given the pharmaceutical composition of the present invention, comprising a mixture of TLC388HCl and mPEG2000-DSPE in a molar ratio of 1:0.7 to 1:0.9 (known as Lipotecan®). […] The pharmaceutical composition was administered as a 30-min IV infusion, on days 1, 8, and 15 of a 28-day cycle (i.e. 3 IV infusions per 28-day cycle).
(§4) Serum samples were collected from the patients for pharmacokinetic analysis on day 1, day 8 and day 15 of Cycles 1 and 2, at the following times:
(§5) Post IV infusion: (Day 1 and 8 of Cycle 1): 33 min; 40 min; 50 min; 1 h; 1 h 30 min; 2 h; 4 h and 8 h. Post IV infusion (Day 15 of Cycle 1 and Day 1, 8, and 15 of Cycle 2): 4 h. Patients were assessed every 8 weeks, after 2 cycles of treatments.
(§6) During the 2-cycle study period, the patients were examined regularly for the following outcomes: • Side effect/DLT; • The pK profiles of the (S,S) and (S,R) diastereomers of TLC388HCl, its 3 metabolites (TLC-U1, TLC-U2 and Topotecan) on day 1 and day 8 of the treatment cycle; and • Anti-cancer efficacy.

clinical = details: human, in vivo
Method: as §1, §2, §3, §4, §5, §6

topoisomerase I = molecular target: T1, topoisomerase I (Homo sapiens, UniProt P11387); test: Topoisomerase I inhibition; type: biochemical
T1 sequence (P11387 1-765): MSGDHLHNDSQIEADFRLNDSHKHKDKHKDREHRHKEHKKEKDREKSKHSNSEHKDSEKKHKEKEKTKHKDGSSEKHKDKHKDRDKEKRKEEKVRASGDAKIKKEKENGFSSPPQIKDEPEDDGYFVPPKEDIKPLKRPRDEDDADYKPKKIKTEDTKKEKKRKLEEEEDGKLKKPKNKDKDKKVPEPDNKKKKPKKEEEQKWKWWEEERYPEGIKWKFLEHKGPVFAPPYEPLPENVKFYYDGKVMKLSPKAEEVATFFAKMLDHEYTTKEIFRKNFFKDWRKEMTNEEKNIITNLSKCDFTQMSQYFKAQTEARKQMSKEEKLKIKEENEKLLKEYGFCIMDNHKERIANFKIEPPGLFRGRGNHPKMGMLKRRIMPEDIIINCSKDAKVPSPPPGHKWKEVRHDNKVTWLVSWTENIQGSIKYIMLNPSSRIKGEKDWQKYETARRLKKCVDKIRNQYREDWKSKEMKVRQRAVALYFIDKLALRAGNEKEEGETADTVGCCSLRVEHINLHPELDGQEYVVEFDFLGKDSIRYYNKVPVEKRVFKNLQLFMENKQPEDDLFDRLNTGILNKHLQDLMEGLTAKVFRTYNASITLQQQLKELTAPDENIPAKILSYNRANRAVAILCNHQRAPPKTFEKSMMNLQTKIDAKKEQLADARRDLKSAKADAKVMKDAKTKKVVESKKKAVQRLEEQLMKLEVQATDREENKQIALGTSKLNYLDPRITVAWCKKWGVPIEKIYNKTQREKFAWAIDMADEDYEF

With `CC[C@@]1(O)C(=O)OCc2c1cc1n(c2=O)Cc2cc3c(CN(C)C)c(O)ccc3nc2-1` [Topotecan, reference compound] the “Dose-normalized AUClast” value [1] was 8.52 ± 3.09 nM*h/(mg/m^2), the “Dose-normalized Cmax” value [1] was 1.95 ± 1.04 nM/(mg/m^2) and the “difference between PK profiles on Day 1 and Day 8” value [1] was “no significant difference”. For the same molecule, the “dose proportionality of exposure” value [1] was “roughly dose proportional”, the AUC0-t ([1]; 3 mg/m2) was 7.866 ng·h/mL and the AUC0-t ([1]; 6 mg/m2) was 21.656 ng·h/mL. For the same molecule, the AUC0-t ([1]; 9 mg/m2) was 37.978 ng·h/mL, the AUC0-t ([1]; 20 mg/m2) was 44.026 ng·h/mL and the AUC0-t ([1]; 30 mg/m2) was 120.74 ng·h/mL. For the same molecule, the AUC0-t ([1]; 35 mg/m2) was 190.91 ng·h/mL, the Cmax ([1]; 35 mg/m2) was 58.075 ng/mL and the Tmax ([1]; 35 mg/m2) was 0.604 (0.156) hr. The t1/2 ([1]; 35 mg/m2) was 6.177 (3.376) hr, the AUC0-t ([1]; 50 mg/m2) was 207.30 ng·h/mL and the AUC0-t ([1]; 60 mg/m2) was 207.43 ng·h/mL. For the same molecule, the “time at which peak plasma concentrations (Cmax) were achieved” value [1] was “within one hour”, the “time of rapid rise of the metabolites in the serum after starting the infusion” value [1] was at most 15 min and the AUC0-t (clinical; 1.3 mg/m2, AUC0-t) was 5.32 ng·h/mL. It also gave a Cmax (clinical; 1.3 mg/m2, Cmax) of 1.06 ng/mL, a Tmax (clinical; 1.3 mg/m2, Tmax) of 0.906 h and a half-life (clinical; 1.3 mg/m2, t1/2) of 4.32 h. For the same molecule, the AUC0-t (clinical; 1.5 mg/m2, AUC0-t) was 6.01 ng·h/mL, the Cmax (clinical; 1.5 mg/m2, Cmax) was 1.52 ng/mL and the Tmax (clinical; 1.5 mg/m2, Tmax) was 0.628 h. It also gave a half-life (clinical; 1.5 mg/m2, t1/2) of 4.76 h, an AUC0-t (clinical; 3 mg/m2, AUC0-t) of 11.7 ng·h/mL and a Cmax (clinical; 3 mg/m2, Cmax) of 2.1 ng/mL. The half-life (clinical; 3 mg/m2, t1/2) was 7.03 h, the AUC0-t (clinical; 6 mg/m2, AUC0-t) was 21.5 ng·h/mL and the Cmax (clinical; 6 mg/m2, Cmax) was 4.83 ng/mL. It also gave a Tmax (clinical; 6 mg/m2, Tmax) of 0.989 h, a half-life (clinical; 6 mg/m2, t1/2) of 6.87 h and an AUC0-t (clinical; 9 mg/m2, AUC0-t) of 27.6 ng·h/mL. For the same molecule, the Cmax (clinical; 9 mg/m2, Cmax) was 6.38 ng/mL, the Tmax (clinical; 9 mg/m2, Tmax) was 1.15 h and the half-life (clinical; 9 mg/m2, t1/2) was 7.7 h. It also gave an AUC0-t (clinical; 13.5 mg/m2) of 37.6 ng·h/mL, a Cmax (clinical; 13.5 mg/m2) of 8.71 ng/mL and a half-life (clinical; 13.5 mg/m2) of 6.29 h. The half-life (clinical; 20 mg/m2) was 4.65 h, the AUC0-t (clinical; 20 mg/m2, AUC0-t) was 47.3 ng·h/mL and the Cmax (clinical; 20 mg/m2, Cmax) was 11.3 ng/mL. For the same molecule, the Tmax (clinical; 20 mg/m2, Tmax) was 0.483 h, the half-life (clinical; 20 mg/m2, t1/2) was 5.07 h and the half-life (clinical; 30 mg/m2) was 4.63 h. For the same molecule, the AUC0-t (clinical; 30 mg/m2, AUC0-t) was 97 ng·h/mL, the Tmax (clinical; 30 mg/m2, Tmax) was 1.54 h and the half-life (clinical; 30 mg/m2, t1/2) was 4.06 h. It also gave an AUC0-t (clinical; 35 mg/m2, AUC0-t) of 176 ng·h/mL, a Cmax (clinical; 35 mg/m2, Cmax) of 51.3 ng/mL and a Tmax (clinical; 35 mg/m2, Tmax) of 1 h. The half-life (clinical; 35 mg/m2, t1/2) was 7.66 h, the Tmax (clinical; 40 mg/m2, Tmax) was 0.85 h and the half-life (clinical; 40 mg/m2, t1/2) was 5.84 h. For the same molecule, the half-life (clinical; 50 mg/m2) was 5.51 h, the AUC0-t (clinical; 50 mg/m2, AUC0-t) was 208 ng·h/mL and the Cmax (clinical; 50 mg/m2, Cmax) was 37.5 ng/mL. The Tmax (clinical; 50 mg/m2, Tmax) was 0.903 h, the half-life (clinical; 50 mg/m2, t1/2) was 7.39 h and the AUC0-t (clinical; 60 mg/m2, AUC0-t) was 215 ng·h/mL. The Cmax (clinical; 60 mg/m2, Cmax) was 57.1 ng/mL, the Tmax (clinical; 60 mg/m2, Tmax) was 0.837 h and the half-life (clinical; 60 mg/m2, t1/2) was 5.18 h. It also gave a Tmax (clinical; 60 mg/m2, tmax) of 0.93 ± 0.82 h and a half-life (clinical; T1/2) of over 2.5 h.
With `CC[C@@]1(OC(=O)[C@@H](C)O)C(=O)OCc2c1cc1n(c2=O)Cc2cc3c(CN(C)C)c(O)ccc3nc2-1` [TLC-U1, S,R-topotecan lactate] the “topoisomerase I inhibition” value (topoisomerase I) was “weak topoisomerase I Inhibitors”, the “Cmax and AUCo-t of TLC-U1 relative to TLC-U2” value [1] was 3-4 times and the “Cmax and AUCo-t of TLC-U1 relative to topotecan” value [1] was “approximately 2 times”. For the same molecule, the “Dose-normalized AUClast” value [1] was 14.49 ± 4.46 nM*h/(mg/m^2), the “Dose-normalized Cmax” value [1] was 10.15 ± 3.87 nM/(mg/m^2) and the “difference between PK profiles on Day 1 and Day 8” value [1] was “no significant difference”. For the same molecule, the “dose proportionality of exposure” value [1] was “roughly dose proportional”, the AUC0-t ([1]; 1.5 mg/m2) was 10.869 (1.365) hr · ng/mL and the Cmax ([1]; 1.5 mg/m2) was 6.897 (1.325) ng/mL. For the same molecule, the Tmax ([1]; 1.5 mg/m2) was 0.483 (0.000) hr, the t1/2 ([1]; 1.5 mg/m2) was 2.687 (0.329) hr and the AUC0-t ([1]; 3 mg/m2) was 16.705 (4.893) hr · ng/mL. For the same molecule, the AUC0-t ([1]; 6 mg/m2) was 46.533 (10.74) hr · ng/mL, the AUC0-t ([1]; 9 mg/m2) was 54.481 (10.70) hr · ng/mL and the AUC0-t ([1]; 20 mg/m2) was 101.46 (37.00) hr · ng/mL. For the same molecule, the AUC0-t ([1]; 30 mg/m2) was 190.59 (33.45) hr · ng/mL, the AUC0-t ([1]; 35 mg/m2) was 406.54 (77.86) hr · ng/mL and the Cmax ([1]; 35 mg/m2) was 327.75 (216.8) ng/mL. For the same molecule, the Tmax ([1]; 35 mg/m2) was 0.546 (0.087) hr, the t1/2 ([1]; 35 mg/m2) was 4.064 (1.658) hr and the AUC0-t ([1]; 40 mg/m2) was 285.94 (207.9) hr · ng/mL. For the same molecule, the AUC0-t ([1]; 50 mg/m2) was 349.27 (131.8) hr · ng/mL, the AUC0-t ([1]; 60 mg/m2) was 417.98 (54.75) hr · ng/mL and the “time at which peak plasma concentrations (Cmax) were achieved” value [1] was “within one hour”. The “time of rapid rise of the metabolites in the serum after starting the infusion” value [1] was at most 15 min, the AUC0-t (clinical; 1.5 mg/m2, AUC0-t) was 13 ng·h/mL and the Cmax (clinical; 1.5 mg/m2, Cmax) was 11.2 ng/mL. For the same molecule, the Tmax (clinical; 1.5 mg/m2, Tmax) was 0.628 h, the half-life (clinical; 1.5 mg/m2, t1/2) was 2.79 h and the AUC0-t (clinical; 3 mg/m2, AUC0-t) was 24.6 ng·h/mL. It also gave a Cmax (clinical; 3 mg/m2, Cmax) of 17.1 ng/mL, a Tmax (clinical; 3 mg/m2, Tmax) of 0.467 h and a half-life (clinical; 3 mg/m2, t1/2) of 2.65 h. The AUC0-t (clinical; 6 mg/m2, AUC0-t) was 44.3 ng·h/mL, the Cmax (clinical; 6 mg/m2, Cmax) was 28.5 ng/mL and the Tmax (clinical; 6 mg/m2, Tmax) was 0.467 h. The half-life (clinical; 6 mg/m2, t1/2) was 2.9 h, the AUC0-t (clinical; 9 mg/m2, AUC0-t) was 48.6 ng·h/mL and the Cmax (clinical; 9 mg/m2, Cmax) was 37.8 ng/mL. The Tmax (clinical; 9 mg/m2, Tmax) was 0.563 h, the half-life (clinical; 9 mg/m2, t1/2) was 3.68 h and the AUC0-t (clinical; 13.5 mg/m2) was 99.1 ng·h/mL. For the same molecule, the Cmax (clinical; 13.5 mg/m2) was 56.3 ng/mL, the Tmax (clinical; 13.5 mg/m2) was 0.308 h and the half-life (clinical; 13.5 mg/m2) was 2.85 h. It also gave an AUC0-t (clinical; 20 mg/m2, AUC0-t) of 112 ng·h/mL, a Cmax (clinical; 20 mg/m2, Cmax) of 87.4 ng/mL and a Tmax (clinical; 20 mg/m2, Tmax) of 0.405 h. The half-life (clinical; 20 mg/m2, t1/2) was 2.95 h, the AUC0-t (clinical; 30 mg/m2, AUC0-t) was 163 ng·h/mL and the Cmax (clinical; 30 mg/m2, Cmax) was 105 ng/mL. For the same molecule, the Tmax (clinical; 30 mg/m2, Tmax) was 0.454 h, the half-life (clinical; 30 mg/m2, t1/2) was 2.66 h and the AUC0-t (clinical; 35 mg/m2, AUC0-t) was 340 ng·h/mL. For the same molecule, the Cmax (clinical; 35 mg/m2, Cmax) was 196 ng/mL, the Tmax (clinical; 35 mg/m2, Tmax) was 0.638 h and the half-life (clinical; 35 mg/m2, t1/2) was 5.33 h. For the same molecule, the AUC0-t (clinical; 40 mg/m2, AUC0-t) was 283 ng·h/mL, the Tmax (clinical; 40 mg/m2, Tmax) was 0.392 h and the half-life (clinical; 40 mg/m2, t1/2) was 2.94 h. It also gave an AUC0-t (clinical; 50 mg/m2, AUC0-t) of 365 ng·h/mL, a Cmax (clinical; 50 mg/m2, Cmax) of 242 ng/mL and a Tmax (clinical; 50 mg/m2, Tmax) of 0.436 h. For the same molecule, the half-life (clinical; 50 mg/m2, t1/2) was 2.9 h, the AUC0-t (clinical; 60 mg/m2, AUC0-t) was 421 ng·h/mL and the Cmax (clinical; 60 mg/m2, Cmax) was 347 ng/mL. For the same molecule, the Tmax (clinical; 60 mg/m2, Tmax) was 0.357 h, the half-life (clinical; 60 mg/m2, t1/2) was 2.91 h and the Tmax (clinical; 60 mg/m2, tmax) was 0.45 ± 0.17 h. The half-life (clinical; T1/2) was over 2.5 h and the Tmax (clinical; Tmax) was under 1 h.
